AC50 data for two molecules are collected here from ChEMBL document CHEMBL5291721, “A preclinical secondary pharmacology resource illuminates target-adverse drug reaction associations of marketed drugs” (Nat Commun, 2023).

In test [1] the target is T1, Corticotropin-releasing factor receptor 2 (Homo sapiens, UniProt Q13324).
T1 sequence (Q13324 whole entry): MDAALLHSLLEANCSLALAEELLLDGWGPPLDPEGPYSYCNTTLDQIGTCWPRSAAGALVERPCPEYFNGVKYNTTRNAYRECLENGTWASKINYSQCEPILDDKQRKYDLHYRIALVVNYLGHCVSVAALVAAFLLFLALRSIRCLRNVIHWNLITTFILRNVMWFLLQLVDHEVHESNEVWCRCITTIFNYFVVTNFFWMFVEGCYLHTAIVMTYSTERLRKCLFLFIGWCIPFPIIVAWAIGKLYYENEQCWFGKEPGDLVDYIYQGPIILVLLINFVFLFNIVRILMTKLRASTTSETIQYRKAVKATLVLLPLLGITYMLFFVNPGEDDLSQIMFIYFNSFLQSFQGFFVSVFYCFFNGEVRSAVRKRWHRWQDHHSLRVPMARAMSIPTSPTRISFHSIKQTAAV

Test [2] deals with D(1A) dopamine receptor (Homo sapiens, UniProt P21728).
The target of test [3] is Mu-type opioid receptor (Homo sapiens, UniProt P35372). The test can be described thus: biochemical. Type of test: functional.
In test [4] the target is T2, Glucocorticoid receptor (Homo sapiens, UniProt P04150).
T2 sequence (P04150 whole entry): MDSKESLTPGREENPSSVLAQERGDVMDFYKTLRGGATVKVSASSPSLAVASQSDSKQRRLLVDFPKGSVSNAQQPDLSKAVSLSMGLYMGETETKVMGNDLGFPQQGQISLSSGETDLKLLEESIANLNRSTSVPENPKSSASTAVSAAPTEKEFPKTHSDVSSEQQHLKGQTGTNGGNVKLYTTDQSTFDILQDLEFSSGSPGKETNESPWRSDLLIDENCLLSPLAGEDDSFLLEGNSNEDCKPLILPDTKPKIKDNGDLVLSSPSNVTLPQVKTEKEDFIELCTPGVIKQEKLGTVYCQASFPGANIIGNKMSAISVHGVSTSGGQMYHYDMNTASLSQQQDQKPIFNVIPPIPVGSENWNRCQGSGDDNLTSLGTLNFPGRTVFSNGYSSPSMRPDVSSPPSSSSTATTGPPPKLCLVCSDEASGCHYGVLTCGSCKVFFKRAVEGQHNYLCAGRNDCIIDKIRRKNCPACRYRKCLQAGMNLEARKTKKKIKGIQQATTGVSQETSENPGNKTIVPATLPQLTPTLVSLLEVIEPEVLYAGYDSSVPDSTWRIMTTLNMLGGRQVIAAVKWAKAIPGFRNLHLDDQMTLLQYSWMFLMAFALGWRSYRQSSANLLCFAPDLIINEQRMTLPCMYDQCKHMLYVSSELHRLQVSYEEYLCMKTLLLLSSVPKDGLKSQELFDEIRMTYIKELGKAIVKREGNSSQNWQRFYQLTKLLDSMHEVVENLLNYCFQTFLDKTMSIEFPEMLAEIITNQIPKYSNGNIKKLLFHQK

Test [5] concerns the target Histamine H2 receptor (Homo sapiens, UniProt P25021).
Test [6] concerns the target T3, Neuropeptide Y receptor type 2 (Homo sapiens, UniProt P49146).
T3 sequence (P49146 whole entry): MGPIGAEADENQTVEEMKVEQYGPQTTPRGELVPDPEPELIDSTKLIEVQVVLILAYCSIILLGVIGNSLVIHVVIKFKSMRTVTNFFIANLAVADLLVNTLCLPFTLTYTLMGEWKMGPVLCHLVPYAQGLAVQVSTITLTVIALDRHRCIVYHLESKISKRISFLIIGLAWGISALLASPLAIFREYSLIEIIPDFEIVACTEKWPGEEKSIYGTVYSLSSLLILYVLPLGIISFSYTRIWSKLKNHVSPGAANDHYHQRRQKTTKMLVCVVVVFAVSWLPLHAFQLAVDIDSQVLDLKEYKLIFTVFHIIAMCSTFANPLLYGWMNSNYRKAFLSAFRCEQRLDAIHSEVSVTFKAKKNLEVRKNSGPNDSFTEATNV

For test [7], the target named is Glucagon receptor (Homo sapiens, UniProt P47871).
Note: assay procedure not described here.

Glucagon receptor, sequence (P47871 whole entry): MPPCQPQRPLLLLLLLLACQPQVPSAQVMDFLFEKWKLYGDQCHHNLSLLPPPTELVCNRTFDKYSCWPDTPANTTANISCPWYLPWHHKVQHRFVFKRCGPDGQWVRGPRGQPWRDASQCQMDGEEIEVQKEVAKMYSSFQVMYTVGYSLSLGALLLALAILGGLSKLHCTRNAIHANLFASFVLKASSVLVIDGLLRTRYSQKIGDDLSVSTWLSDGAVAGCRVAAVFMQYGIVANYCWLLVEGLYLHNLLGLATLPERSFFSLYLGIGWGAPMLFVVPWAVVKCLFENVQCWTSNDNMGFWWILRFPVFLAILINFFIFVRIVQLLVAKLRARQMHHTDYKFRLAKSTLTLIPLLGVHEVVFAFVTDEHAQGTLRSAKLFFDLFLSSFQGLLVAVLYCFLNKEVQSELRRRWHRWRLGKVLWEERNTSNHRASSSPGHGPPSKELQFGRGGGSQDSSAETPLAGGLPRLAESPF
Mu-type opioid receptor, sequence (P35372 whole entry): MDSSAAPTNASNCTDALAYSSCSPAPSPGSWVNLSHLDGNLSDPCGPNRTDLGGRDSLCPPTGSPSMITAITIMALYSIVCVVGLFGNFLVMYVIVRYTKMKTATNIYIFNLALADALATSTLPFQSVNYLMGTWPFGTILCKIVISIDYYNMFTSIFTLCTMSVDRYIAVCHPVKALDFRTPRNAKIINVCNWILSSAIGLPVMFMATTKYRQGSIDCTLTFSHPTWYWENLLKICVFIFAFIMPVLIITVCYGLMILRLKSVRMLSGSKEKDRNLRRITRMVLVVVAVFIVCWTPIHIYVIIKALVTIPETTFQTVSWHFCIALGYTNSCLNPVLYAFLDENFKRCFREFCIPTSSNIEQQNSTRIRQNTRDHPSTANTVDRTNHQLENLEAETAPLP
Histamine H2 receptor, sequence (P25021 whole entry): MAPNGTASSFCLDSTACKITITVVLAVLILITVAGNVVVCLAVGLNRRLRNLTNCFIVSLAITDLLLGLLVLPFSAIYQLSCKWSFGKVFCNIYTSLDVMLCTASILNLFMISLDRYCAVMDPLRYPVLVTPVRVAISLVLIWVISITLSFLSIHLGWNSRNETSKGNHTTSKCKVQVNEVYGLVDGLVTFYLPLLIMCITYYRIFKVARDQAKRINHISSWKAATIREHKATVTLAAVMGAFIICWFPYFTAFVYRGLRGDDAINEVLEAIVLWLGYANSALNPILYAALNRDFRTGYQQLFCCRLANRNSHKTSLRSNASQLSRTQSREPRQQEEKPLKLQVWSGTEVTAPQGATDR
D(1A) dopamine receptor, sequence (P21728 whole entry): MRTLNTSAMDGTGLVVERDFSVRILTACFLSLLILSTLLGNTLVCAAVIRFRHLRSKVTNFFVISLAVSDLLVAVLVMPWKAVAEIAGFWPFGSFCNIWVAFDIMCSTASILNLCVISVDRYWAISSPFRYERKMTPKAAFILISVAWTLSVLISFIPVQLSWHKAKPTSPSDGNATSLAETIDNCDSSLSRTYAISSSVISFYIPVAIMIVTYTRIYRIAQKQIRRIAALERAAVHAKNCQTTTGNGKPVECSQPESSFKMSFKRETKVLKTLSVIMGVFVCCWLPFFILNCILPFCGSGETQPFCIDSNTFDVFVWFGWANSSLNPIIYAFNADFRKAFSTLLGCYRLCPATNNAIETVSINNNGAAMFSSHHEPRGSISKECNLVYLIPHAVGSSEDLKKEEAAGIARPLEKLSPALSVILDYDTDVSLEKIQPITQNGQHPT

As to `C=CC[C@@H]1/C=C(\C)C[C@H](C)C[C@H](OC)[C@H]2O[C@@](O)(C(=O)C(=O)N3CCCC[C@H]3C(=O)O[C@H](/C(C)=C/[C@@H]3CC[C@@H](O)[C@H](OC)C3)[C@H](C)[C@@H](O)CC1=O)[C@H](C)C[C@@H]2OC` [TACROLIMUS ANHYDROUS], the concentration at half-maximal activity (AC50) in test [1] is more than 30 µM; in test [2], more than 10 µM; in test [3], more than 30 µM; in test [4] it was more than 30 µM; in test [5], more than 10 µM; in test [6] it was more than 30 µM. The AC50 in test [7] is more than 30 µM.
Consider `COc1cc2nc(N3CCN(C(=O)C4CCCO4)CC3)nc(N)c2cc1OC` (centres undefined) [TERAZOSIN], for which the AC50 was more than 30 µM in test [1]; more than 10 µM in test [2]; more than 30 µM in test [3]; more than 30 µM in test [4]; more than 10 µM in test [5]; more than 30 µM in test [6]. Besides, the AC50 in test [7] was more than 30 µM.

The AC50 is the concentration giving half of the maximal activity seen.
